Molecular target: T1, ATP-dependent translocase ABCB1 (Homo sapiens, UniProt P08183)
Experiment: Inhibition of p-glycoprotein expressed in human MCF-7/DX1 cells assessed as accumulation of calcein-AM by FACS analysis; call rule not given here
Type: cell-based

T1 sequence (P08183 whole entry): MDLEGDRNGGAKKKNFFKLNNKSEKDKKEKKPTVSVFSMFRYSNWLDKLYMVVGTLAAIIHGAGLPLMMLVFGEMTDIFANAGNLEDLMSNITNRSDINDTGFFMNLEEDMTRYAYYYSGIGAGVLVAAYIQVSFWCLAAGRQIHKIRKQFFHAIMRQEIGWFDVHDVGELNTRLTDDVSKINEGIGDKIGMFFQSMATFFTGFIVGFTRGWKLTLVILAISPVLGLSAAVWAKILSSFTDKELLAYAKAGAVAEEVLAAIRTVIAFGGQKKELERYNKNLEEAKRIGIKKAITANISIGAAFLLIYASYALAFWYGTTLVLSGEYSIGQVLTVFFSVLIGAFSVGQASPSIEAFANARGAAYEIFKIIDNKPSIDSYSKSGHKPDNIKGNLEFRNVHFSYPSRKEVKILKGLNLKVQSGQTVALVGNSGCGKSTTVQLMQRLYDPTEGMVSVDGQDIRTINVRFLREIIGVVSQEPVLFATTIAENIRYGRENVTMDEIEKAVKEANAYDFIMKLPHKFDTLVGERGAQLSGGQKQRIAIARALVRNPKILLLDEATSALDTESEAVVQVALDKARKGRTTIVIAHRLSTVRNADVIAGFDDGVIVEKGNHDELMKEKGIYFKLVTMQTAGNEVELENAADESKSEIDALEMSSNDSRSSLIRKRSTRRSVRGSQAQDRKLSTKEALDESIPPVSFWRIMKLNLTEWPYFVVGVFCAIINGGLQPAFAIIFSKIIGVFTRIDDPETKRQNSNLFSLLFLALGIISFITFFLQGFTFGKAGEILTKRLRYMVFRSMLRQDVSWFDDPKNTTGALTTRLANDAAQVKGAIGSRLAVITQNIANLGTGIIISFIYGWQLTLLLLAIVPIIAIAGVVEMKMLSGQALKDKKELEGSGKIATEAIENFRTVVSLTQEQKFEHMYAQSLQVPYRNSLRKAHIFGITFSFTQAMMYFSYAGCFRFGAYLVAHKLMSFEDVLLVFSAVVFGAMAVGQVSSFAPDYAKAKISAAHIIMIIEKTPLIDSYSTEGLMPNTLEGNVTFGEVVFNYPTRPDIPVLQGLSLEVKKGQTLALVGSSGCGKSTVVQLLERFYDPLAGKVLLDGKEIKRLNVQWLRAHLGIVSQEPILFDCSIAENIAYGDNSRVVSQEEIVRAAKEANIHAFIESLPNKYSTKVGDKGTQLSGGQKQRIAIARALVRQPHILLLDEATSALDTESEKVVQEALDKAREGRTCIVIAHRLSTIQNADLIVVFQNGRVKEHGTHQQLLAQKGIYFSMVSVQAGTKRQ

Structure (SMILES)	IC50
C=C[C@H]1CN2CC[C@H]1C[C@H]2[C@H](OC(=O)CCc1cn(CCC(=O)O[C@H](c2ccnc3ccc(OC)cc23)[C@@H]2C[C@@H]3CCN2C[C@@H]3C=C)nn1)c1ccnc2ccc(OC)cc12	6.1 µM
C=C[C@H]1CN2CC[C@H]1C[C@H]2[C@H](OC(=O)CCCCn1cc(CCC(=O)O[C@H](c2ccnc3ccc(OC)cc23)[C@@H]2C[C@@H]3CCN2C[C@@H]3C=C)nn1)c1ccnc2ccc(OC)cc12	6.2 µM
C=C[C@H]1CN2CC[C@H]1C[C@H]2[C@H](OC(=O)CCCCCCn1cc(CCC(=O)O[C@H](c2ccnc3ccc(OC)cc23)[C@@H]2C[C@@H]3CCN2C[C@@H]3C=C)nn1)c1ccnc2ccc(OC)cc12	3.6 µM
C=C[C@H]1CN2CC[C@H]1C[C@H]2[C@H](OC(=O)CCCCc1cn(CCCCC(=O)O[C@H](c2ccnc3ccc(OC)cc23)[C@@H]2C[C@@H]3CCN2C[C@@H]3C=C)nn1)c1ccnc2ccc(OC)cc12	4.6 µM

Next, values leading:

IC50	Structure (SMILES)
4.5 µM	C=C[C@H]1CN2CC[C@H]1C[C@H]2[C@H](OC(=O)CCCCCCCCc1cn(CCCCCCCCC(=O)O[C@H](c2ccnc3ccc(OC)cc23)[C@@H]2C[C@@H]3CCN2C[C@@H]3C=C)nn1)c1ccnc2ccc(OC)cc12
2.8 µM	C=C[C@H]1CN2CC[C@H]1C[C@H]2[C@H](OC(=O)CCCCCCc1cn(CCCCC(=O)O[C@H](c2ccnc3ccc(OC)cc23)[C@@H]2C[C@@H]3CCN2C[C@@H]3C=C)nn1)c1ccnc2ccc(OC)cc12
2.9 µM	C=C[C@H]1CN2CC[C@H]1C[C@H]2[C@H](OC(=O)CCCCCCn1cc(CCCCC(=O)O[C@H](c2ccnc3ccc(OC)cc23)[C@@H]2C[C@@H]3CCN2C[C@@H]3C=C)nn1)c1ccnc2ccc(OC)cc12
2.7 µM	C=C[C@H]1CN2CC[C@H]1C[C@H]2[C@H](OC(=O)CCCCCCc1cn(CCCCCCC(=O)O[C@H](c2ccnc3ccc(OC)cc23)[C@@H]2C[C@@H]3CCN2C[C@@H]3C=C)nn1)c1ccnc2ccc(OC)cc12

Molecular target: T1, ATP-dependent translocase ABCB1
Experiment: Inhibition of p-glycoprotein expressed in human MCF-7/DX1 cells assessed as accumulation of calcein-AM at 1 uM by FACS analysis
Type: cell-based

inhibition (INH)	Structure (SMILES)
Active	C=C[C@H]1CN2CC[C@H]1C[C@H]2[C@H](OC(=O)CCCCCCc1cn(CCCCCCC(=O)O[C@H](c2ccnc3ccc(OC)cc23)[C@@H]2C[C@@H]3CCN2C[C@@H]3C=C)nn1)c1ccnc2ccc(OC)cc12
